Data on 19 molecules can be found in patent US7645903B2, “Use of urea variants as affinity ligands” (GE Healthcare Bio-Sciences AB, priority 2002, dated 2010).

SMILES strings stand for the structures.

One assay concerns human Fab of κ-type. As to the kind of experiment: STD-NMR binding test (saturation transfer difference NMR screening). The arrangement: key to NMR signal, conc 1 / NMR signal, conc 2 / NMR signal, conc 3 / NMR signal, Conc 1 (directed library) / NMR signal, Conc 2 (directed library): 0 no; 1 weak; 2 strong signal. Particulars: for NMR signal, conc 2: 100 nM protein; for NMR signal, conc 2 / NMR signal, conc 1 / NMR signal, conc 3: 0.5 mM ligand; for NMR signal, conc 1: 500 nM protein; for NMR signal, conc 3: 20 nM protein; for NMR signal at the first dilution of antibody concentration: conc 2, 100 nM; for binder designation from NMR screening: from signals at 500, 100 and 20 nM antibody; for NMR signal, Conc 2 (directed library): 100 nM antibody; for NMR signal, Conc 1 (directed library): 500 nM antibody. The procedure:
(§1) All NMR experiments were performed at 298 K on a Bruker Avance 500 MHz spectrometer. The 1D saturation transfer difference method (STD-NMR) was used as screening assay (Mayer M. and Meyer B. 1999. Characterisation of Ligand Binding by Saturation Transfer Difference NMR Spectroscopy. Angew. Chem., Int. Ed. 38: 1784-1788). […] The two spectra are recorded in the same experiment in an interleaved fashion. […] It has been shown that the method is capable of detecting ligands with dissociation constants between 10^−3 and 10^−8 M (Mayer M. and Meyer B. 1999. Characterisation of Ligand Binding by Saturation Transfer Difference NMR Spectroscopy. Angew. Chem, Int. Ed. 38: 1784-1788). The strength of the STD-NMR signal depends upon several factors including protein size, offset and duration of the on-resonance irradiation, the dissociation rate constant and the excess of ligand. The STD-NMR method is advantageous in that the detection limits can be tuned for binding by varying the protein concentration while keeping the ligand concentration constant. Under such conditions, at higher protein concentrations the weak to medium binders are detected, whereas at lower protein concentrations only medium binders are detected. For instance, it has been shown before for another enzyme system that both μM and mM binders were detected at a protein concentration of 35 μM whereas only μM binders were detected at protein concentrations of 1 μM and 100 nM (Peng J. W., Lepre C. A., Fejzo J., Abdul-Manan N. and Moore J. M. 2001, Nuclear Magnetic Resonance-Based Approaches for Lead Generation in Drug Discovery, Methods in Enzymology. 338: 202-230). It should be noted that the signal intensity at one specific protein concentration should not be taken as a direct measure of the binding strength. […] On the other hand the signal of the μM binder became even stronger than before (Peng J. W., Lepre C. A., Fejzo J., Abdul-Manan N. and Moore J. M. 2001, Nuclear Magnetic Resonance-Based Approaches for Lead Generation in Drug Discovery, Methods in Enzymology. 338: 202-230).
(§2) Here, three different antibody concentrations were used, namely, 0.5 μM, 100 nM and 20 nM. The antibody used was a human Fab of κ-type. In all cases ligands were tested one-by-one. On-resonance irradiation was set at 0 ppm and off-resonance irradiation was set at 40 ppm. Irradiation time in each scan was 2 s and 16K data points were collected with 1024 scans in total. Compounds for testing were dissolved in DMSOd6 to a concentration of 50 mM and 5 μL of the concentrated ligand solution was added to 495 μL buffer solution. The samples thus consisted of 0.5 mM ligand, 20 mM phosphate buffer, 100 mM NaCl and […] in D2O at pD 7.5, uncorrected reading on pH-meter. Compounds were initially tested for binding with 0.5 μM antibody. Interesting ligands were further tested with protein concentrations of 100 or 20 nM. A one-dimensional ^1H-spectrum was acquired first as reference spectrum and subsequently a saturation transfer difference (STD) spectrum was acquired. Each analysis took 60 minutes on the spectrometer.

Assay [1] in a line: STD-NMR control in the absence of target antibody. Further details: key to NMR signal, ctrl: 0 no; 1 weak; 2 strong signal. The settings on record: for NMR signal, ctrl: absence of target antibody. The procedure: as §1, §2
These compounds were designated as weak binders. […] Of these, three compounds AB—0000860, AB—0000910 and AB—0001250 showing a clear signal (2 in table 1) were further analysed at a second dilution of antibody concentration (conc 3 in table 1).

Regarding `CC(C)=CC1=C(O)C(=O)c2ccccc2C1=O` [AB_0001040, 2-hydroxy-3-(2-methyl-1-propenyl)-1,4-naphthoquinone], in the assay on human Fab of κ-type, the “NMR signal, conc 2” value was found to be 1 and the “NMR signal, conc 1” value is on record as 1. In addition, the “NMR signal, ctrl” value in assay [1] is given as 0.
As to `c1ccc(-c2nnc3ccccc3n2)cc1` [AB_0000600, 3-phenyl-1,2,4-benzotriazine], in the assay on human Fab of κ-type, the “NMR signal, conc 2” value was 1 and the “NMR signal, conc 1” value is recorded as 1. For the same molecule, the “NMR signal, ctrl” value in assay [1] stood at 0.
Turning to `COc1ccc(CC(C)=O)cc1Br` [AB_0000910, 3-bromo-4-methoxyphenylacetone], in the assay with human Fab of κ-type, the “NMR signal, conc 3” value worked out at 0; the “NMR signal, conc 2” value is on record as 2; the “NMR signal, conc 1” value stood at 2; the “NMR signal at the first dilution of antibody concentration” value (“NMR signal at the first dilution” below) is “clear signal”. Further, the “NMR signal at a second dilution of antibody concentration” value in the assay with human Fab of κ-type (conc 3, 20 nM) is on record as “did not show any signal”. For the same molecule, the “NMR signal, ctrl” value in assay [1] came out at 0.
With `O=C1CN(c2ccccc2)C(=O)N1c1ccccc1` [AB_0000860, 1,3-diphenylimidazolidine-2,4-dione], in the assay on human Fab of κ-type, the “NMR signal, conc 3” value is reported as 1; the “NMR signal, conc 2” value stood at 2; the “NMR signal, conc 1” value came to 2; the “NMR signal at the first dilution” value was “clear signal”. In addition, the “binder designation from NMR screening” value in the assay on human Fab of κ-type is reported as “strong binders”. In assay [1], the “NMR signal, ctrl” value was 0.
For the molecule `OCC(Oc1ccccc1)c1ccccc1` (stereo not shown) [AB_0000810, 2-phenoxy-2-phenyl-1-ethanol], in the assay with human Fab of κ-type, the “NMR signal, conc 2” value came to 1 and the “NMR signal, conc 1” value is 2. In assay [1], the “NMR signal, ctrl” value was 0.
With `COC(=O)C1OC1c1cc(Cl)ccc1OC` (stereo not shown) [AB_0001240, methyl 3-(5-chloro-2-methoxyphenyl)-2,3-epoxypropionate], in the assay with human Fab of κ-type, the “NMR signal, conc 2” value is 1 and the “NMR signal, conc 1” value is 1. The “NMR signal, ctrl” value in assay [1] was determined as 0.
Take `CN(C)C(=O)N(C)c1ccc(Cl)c(Cl)c1` [AB_0001250, 1-(3,4-dichlorophenyl)-1,3,3-trimethylurea]: in the assay on human Fab of κ-type, the “NMR signal, conc 3” value was determined as 1; the “NMR signal, conc 2” value is listed as 2; the “NMR signal, conc 1” value is on record as 2; the “NMR signal at the first dilution” value is recorded as “clear signal”. The “binder designation from NMR screening” value in the assay with human Fab of κ-type is on record as “strong binders”. For the same molecule, the “NMR signal, ctrl” value in assay [1] amounted to 0.
Turning to `Fc1cc(F)cc(Cc2nc(-c3cccs3)no2)c1` [AB_0001020, 5-(3,5-difluorobenzyl)-3-(2-thienyl)-1,2,4-oxadiazole], in the assay with human Fab of κ-type, the “NMR signal, conc 2” value is 0 and the “NMR signal, conc 1” value is on record as 1.
The like results for `Sc1nnc(-c2csc(-c3ccccc3)n2)o1` [AB_0000760, 5-(2-phenyl-1,3-thiazol-4-yl)-1,3,4-oxadiazol-2-ylhydrosulfide] were, in that order, 0 and 1.
Take `N#CCc1ccc(C(=O)c2ccccc2F)s1` [AB_0001010, 2-[5-(2-fluorobenzoyl)-2-thienyl]acetonitrile]: in the assay on human Fab of κ-type, the “NMR signal, conc 3” value came out at 2; the “NMR signal, conc 2” value was found to be 2; the “NMR signal, conc 1” value was 2; the “binder designation from NMR screening” value is given as “false positive”. The “NMR signal, ctrl” value in assay [1] was found to be 1. Further, in assay [1] (no antibody), the “NMR signal in the absence of target antibody” value was “positive NMR signal”.
Take `O=C(CC1OC(=O)c2ccccc21)c1ccccn1` (stereo not shown) [AB_0000790, 3-[2-oxo-2-(2-pyridyl)ethyl]-1,3-dihydroisobenzofuran-1-one]: in the assay on human Fab of κ-type, the “NMR signal, conc 1” value amounted to 0.
On to `N=c1sccn1CC(=O)c1ccc2ccccc2c1` [AB_0001060, 2-(2-imino-thiazol-3-yl)-1-naphthalen-2-yl-ethanone], for which, in the assay with human Fab of κ-type, the “NMR signal, conc 2” value was found to be 0 and the “NMR signal, conc 1” value is 2.
As for `Clc1ccc(OCc2noc(CSc3ccccn3)n2)cc1` [AB_0001290, 3-[(4-chlorophenoxy)methyl]-5-[(2-pyridylthio)methyl]-1,2,4-oxadiazole], in the assay on human Fab of κ-type, the “NMR signal, conc 2” value amounted to 1 and the “NMR signal, conc 1” value is reported as 2. The “NMR signal, ctrl” value in assay [1] is 0.
As to `CCCCc1c(O)nc2ccccn2c1=O` [AB_0000990, 3-butyl-2-hydroxy-4h-pyrido[1,2-a]pyrimidin-4-one], in the assay on human Fab of κ-type, the “NMR signal, conc 1” value is on record as 0.
`COC(=O)CCCN(C)C(=O)N(C)c1ccc(OC)c(F)c1` [AB_0001252, 4-[3-(3-Fluoro-4-methoxy-phenyl)-1,3-dimethyl-ureido]-butyric acid methyl ester]: in the assay with human Fab of κ-type, the “NMR signal, Conc 2 (directed library)” value came out at 1 and the “NMR signal, Conc 1 (directed library)” value was found to be 1.
On to `O=C(COc1ccc2ccccc2c1)ON1C(=O)CCC1=O` [AB_0001230, (2-naphthoxy)acetic acid, n-hydroxysuccinimide ester], for which the “NMR signal, conc 1” value with human Fab of κ-type is recorded as 0.
For `Clc1ccc(COn2ccnc2)cc1Cl` [AB_0001150, 1-[(3,4-dichlorobenzyl)oxy]-1h-imidazole], in the assay with human Fab of κ-type, the “NMR signal, conc 2” value is given as 0 and the “NMR signal, conc 1” value worked out at 2.
As to `O=C1C=C(Cl)C(=O)N1c1ccccc1` [AB_0000930, 3-chloro-1-phenyl-pyrrole-2,5-dione], the “NMR signal, conc 1” value in the assay with human Fab of κ-type was found to be 0.
Consider `COC(=O)CCCN(C)C(=O)N(C)c1ccc(OC)c(Cl)c1` [AB_0001253, 4-[3-(3-Chloro-4-methoxy-phenyl)-1,3-dimethyl-ureido]-butyric acid methyl ester], for which, in the assay with human Fab of κ-type, the “NMR signal, Conc 2 (directed library)” value is listed as 1 and the “NMR signal, Conc 1 (directed library)” value amounted to 2.
